24 compounds from patent US20250326738A1, “MALT1 Modulators and Uses Thereof” (Rarefied Biosciences, Inc., priority 2022, published 2025) can be followed below.

One experiment concerns the target T1, full length MALT1 (Homo sapiens, UniProt Q9UDY8).
T1 construct: measuring enzymatic activity of full length MALT1 at varying concentrations of compound
T1 sequence (Q9UDY8 1-824): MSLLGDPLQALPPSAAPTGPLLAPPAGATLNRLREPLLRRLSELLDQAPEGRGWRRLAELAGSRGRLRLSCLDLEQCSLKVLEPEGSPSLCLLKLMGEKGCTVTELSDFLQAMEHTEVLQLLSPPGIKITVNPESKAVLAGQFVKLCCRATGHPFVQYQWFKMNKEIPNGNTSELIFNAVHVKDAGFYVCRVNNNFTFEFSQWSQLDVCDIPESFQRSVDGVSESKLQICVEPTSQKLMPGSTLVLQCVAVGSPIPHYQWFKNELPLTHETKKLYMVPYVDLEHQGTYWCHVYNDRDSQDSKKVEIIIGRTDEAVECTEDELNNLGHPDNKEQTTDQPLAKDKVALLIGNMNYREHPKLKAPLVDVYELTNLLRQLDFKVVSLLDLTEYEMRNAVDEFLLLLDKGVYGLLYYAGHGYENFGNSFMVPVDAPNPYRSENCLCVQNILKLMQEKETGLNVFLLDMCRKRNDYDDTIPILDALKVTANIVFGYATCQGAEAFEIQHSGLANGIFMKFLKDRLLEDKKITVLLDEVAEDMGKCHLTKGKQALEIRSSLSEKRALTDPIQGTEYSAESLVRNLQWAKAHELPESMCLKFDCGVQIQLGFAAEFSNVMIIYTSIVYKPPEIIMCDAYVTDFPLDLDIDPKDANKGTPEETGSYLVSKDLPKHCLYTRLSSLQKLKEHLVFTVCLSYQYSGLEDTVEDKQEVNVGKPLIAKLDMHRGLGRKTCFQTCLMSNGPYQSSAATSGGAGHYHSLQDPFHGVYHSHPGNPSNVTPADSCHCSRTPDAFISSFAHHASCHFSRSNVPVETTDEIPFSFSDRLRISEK
The experiment in a line: MALT1 biochemical assay (fluorogenic peptide substrate cleavage). Particulars: full length MALT1, 15 nM enzyme, 30 μM peptide substrate, 30 min pre-incubation, 60 min reaction; mean if tested more than once. Here is the method:
Inhibitor potency was evaluated by measuring enzymatic activity of full length MALT1 at varying concentrations of compound. The enzymatic assay consists of a single substrate reaction that monitors the release of a fluorescent dye upon cleavage of the peptide substrate. […] The assay buffer consists of 50 mM Hepes, pH 7.5, 0.8 M sodium citrate, 1 mM DTT, 0.004% tween-20, and 0.005% bovine serum albumin (BSA). […] The reaction was quenched after 60 minutes with the addition of iodoacetate at a final concentration of 10 mM. Total fluorescence was measured using an Envision (PerkinElmer) with fluorescence excitation at 485 nm and emission at 520 nm.
The reaction was initiated with the addition of 10 μL of peptide substrate. […] IC50 values were calculated by fitting the concentration-response curves to a four-parameter logistic equation in GraphPad Prism.
“N/A” indicates not tested.

The next experiment concerns Jurkat IL-2. The experiment is described as follows: Jurkat IL-2 assay (IL-2 inhibition by ELISA after anti-CD3/28/2 stimulation). Format: cell-based. Particulars: Homo sapiens; Jurkat clone E6.1, IL-2 in supernatant, 30 min pre-incubation, anti-CD3/28/2 stimulation 24 hours; mean if tested more than once. Here is the method:
Inhibition was determined in a cell-based assay using Jurkat (ATCC, clone E6.1), an immortalized T-cell line, exposed to a dose response of compound and assessed for viability, and IL-2 inhibition by ELISA. Cells were cultured in RPMI/10% FBS (Invitrogen 11875093, Atlanta Biologicals S12450H), maintained below 3E6/mL and only used in assays while below passage 25. Compounds were stamped by ECHO onto 384w plates (PerkinElmer Culturplate, 6007680). The cells were plated in fresh media on top of compound and incubated for 30 minutes before stimulation with soluble anti-CD3/28/2 (Stemcell, 10970) for 24 hours. Supernatant was collected and assessed for IL-2 (MSD, 384w, L21SA-1). To assess viability of cells treated with compound, cells were lysed with CTG reagent (Promega, G7570), and measured by luminometer. […] IC50s calculated using 4-parameter fit in GraphPad Prism.
“N/A” indicates not tested. For a compound that was tested in more than one experiment, the result shown represents the mean value.

Structures are written as SMILES.

The term IC50 denotes the midpoint of a concentration-inhibition curve. High values mean lower potency, low ones higher potency.

Turning to `CC(=O)N1CCC(C(=O)N(C)[C@@H](c2ccc(Nc3cnn(-c4ccccn4)c3C(F)(F)F)cc2)C(F)(F)F)CC1` [Compound 1.29], the IC50 on full length MALT1 is 100 to 1000 nM; with Jurkat IL-2 it was less than 100 nM.

As for `CN(C(=O)[C@H]1C[C@@H](C(=O)O)C1)[C@@H](c1ccc(Nc2cnn(-c3ccccc3)c2C(F)(F)F)cc1)C(F)(F)F` [Compound 2.14], the concentration for half-maximal inhibition (IC50) was less than 100 nM at full length MALT1 and 100 to 1000 nM in the experiment with Jurkat IL-2.

Regarding `CN(C(=O)C1CCS(=O)(=O)CC1)[C@@H](c1ccc(Nc2cnn(-c3ccccc3C#N)c2C(F)(F)F)cc1)C(F)(F)F` [Compound 1.16], the IC50 against full length MALT1 and in the experiment with Jurkat IL-2 was 100 to 1000 nM throughout.

As to `CN(C(=O)C1CCS(=O)(=O)CC1)[C@@H](c1ccc(Nc2cnn(C)c2-c2ccccc2)cc1)C(F)(F)F` [Compound 1.4], the IC50 at full length MALT1 and with Jurkat IL-2 was more than 1000 nM in each case.

On to `CN(C(=O)C1CCS(=O)(=O)CC1)[C@@H](c1ccc(Nc2cnn(-c3cccc(C#N)c3)c2C(F)(F)F)cc1)C(F)(F)F` [Compound 1.17], for which the IC50 against full length MALT1 and with Jurkat IL-2 was less than 100 nM throughout.

Take `CC(O)c1c(Nc2ccc([C@H](N(C)C(=O)C3CCS(=O)(=O)CC3)C(F)(F)F)cc2)cnn1-c1cccnc1` (stereo partly drawn) [Compound 1.24]: the values for the IC50 on full length MALT1 and in the experiment with Jurkat IL-2 were less than 100 nM and 100 to 1000 nM, respectively.

Turning to `CN(C(=O)[C@H]1C[C@H](C(=O)O)C1)[C@@H](c1ccc(Nc2cnn(-c3ccccc3)c2C(F)(F)F)cc1)C(F)(F)F` [Compound 2.13], the IC50 at full length MALT1 and with Jurkat IL-2 was less than 100 nM throughout.

Turning to `CN(C(=O)C1CCS(=O)(=O)CC1)[C@@H](c1ccc(Nc2cnn(-c3cnccn3)c2C(F)(F)F)cc1)C(F)(F)F` [Compound 1.19], the results for the IC50 at full length MALT1 and with Jurkat IL-2 were 100 to 1000 nM and less than 100 nM, respectively.

`CO[C@@H](C)c1c(Nc2ccc([C@H](N(C)C(=O)C3CCN(C(C)=O)CC3)C(F)(F)F)cc2)cnn1-c1ccccn1` [Compound 1.32]: the half-maximal inhibitory concentration (IC50) is less than 100 nM against full length MALT1 and 100 to 1000 nM in the experiment on Jurkat IL-2.

As for `CN(C(=O)C1CCS(=O)(=O)CC1)[C@@H](c1ccc(Nc2cnn(-c3ccncc3)c2C(F)(F)F)cc1)C(F)(F)F` [Compound 1.14], the values for the IC50 at full length MALT1 and in the experiment on Jurkat IL-2 were 100 to 1000 nM and less than 100 nM, respectively.

In the case of `CO[C@@H](C)c1c(Nc2ccc([C@H](N(C)C(=O)C3CCN(C(C)=O)CC3)C(F)(F)F)cc2)cnn1-c1ccncc1` [Compound 1.33], the IC50 on full length MALT1 and with Jurkat IL-2 was 100 to 1000 nM in each case.

`CN(C(=O)C1CCS(=O)(=O)CC1)[C@@H](c1ccc(Nc2cnn(-c3ncccn3)c2C(F)(F)F)cc1)C(F)(F)F` [Compound 1.18]: the IC50 at full length MALT1 and with Jurkat IL-2 was more than 1000 nM each time.

For the compound `COCC(C)n1ncc(Nc2ccc([C@H](N(C)C(=O)C3CCS(=O)(=O)CC3)C(F)(F)F)cc2)c1C(F)(F)F` (stereo partly drawn) [Compound 1.11], the IC50 against full length MALT1 and in the experiment with Jurkat IL-2 was more than 1000 nM throughout.

For the compound `CN(C(=O)C1CCS(=O)(=O)CC1)[C@@H](c1ccc(Nc2cnn(CC(C)(C)C)c2C(F)(F)F)cc1)C(F)(F)F` [Compound 1.12], the IC50 at full length MALT1 and in the experiment with Jurkat IL-2 was more than 1000 nM in each case.

As to `CO[C@@H](C)c1c(Nc2ccc([C@H](N(C)C(=O)[C@H]3CC[C@H](C(=O)O)CC3)C(F)(F)F)cc2)cnn1-c1ccncc1` [Compound 2.7], the IC50 on full length MALT1 is 100 to 1000 nM; with Jurkat IL-2, more than 1000 nM.

For `CN(C(=O)C1CCS(=O)(=O)CC1)[C@@H](c1ccc(Nc2cnn(C)c2C(F)(F)F)cc1)C(F)(F)F` [Compound 1.1, (S)—N-methyl-N-(2,2,2-trifluoro-1-(4-((1-methyl-5-(trifluoromethyl)-1H-pyrazol-4-yl)amino)phenyl)ethyl)tetrahydro-2H-thiopyran-4-carboxamide 1,1-dioxide], the IC50 on full length MALT1 and with Jurkat IL-2 was more than 1000 nM throughout.

Take `CN(C(=O)[C@H]1C[C@@H](C(=O)O)C1)[C@@H](c1ccc(Nc2cnn(-c3ccccn3)c2C(F)(F)F)cc1)C(F)(F)F` [Compound 2.12, (1s,3s)-3-{methyl[(1S)-2,2,2-trifluoro-1-(4-{[1-(pyridin-2-yl)-5-(trifluoromethyl)-1H-pyrazol-4-yl]amino}phenyl)ethyl]carbamoyl}cyclobutane-1-carboxylic Acid Amine]: the results for the IC50 against full length MALT1 and in the experiment on Jurkat IL-2 were less than 100 nM and 100 to 1000 nM, respectively.

Turning to `CC(=O)N1CCC(C(=O)N(C)[C@@H](c2ccc(Nc3cnn(-c4ccccc4)c3C(F)(F)F)cc2)C(F)(F)F)CC1` [Compound 1.25], the IC50 on full length MALT1 was 100 to 1000 nM; in the experiment on Jurkat IL-2, less than 100 nM.

Turning to `CN(C(=O)C1CCS(=O)(=O)CC1)[C@@H](c1ccc(Nc2cnn(C3CC3)c2C(F)(F)F)cc1)C(F)(F)F` [Compound 1.7], the concentration for half-maximal inhibition (IC50) on full length MALT1 and in the experiment on Jurkat IL-2 was 100 to 1000 nM each time.

Take `CO[C@@H](C)c1c(Nc2ccc([C@H](N(C)C(=O)C3CCN(C(C)=O)CC3)C(F)(F)F)cc2)cnn1-c1ccccc1` [Compound 1.31]: the IC50 on full length MALT1 and in the experiment with Jurkat IL-2 was 100 to 1000 nM throughout.

`CC(=O)N1CCC(C(=O)N(C)[C@@H](c2ccc(Nc3cnn(-c4ccccc4)c3C(C)C)cc2)C(F)(F)F)CC1` [Compound 1.26]: the IC50 against full length MALT1 and with Jurkat IL-2 was 100 to 1000 nM throughout.

As for `CC(C)c1c(Nc2ccc([C@H](N(C)C(=O)C3CCS(=O)(=O)CC3)C(F)(F)F)cc2)cnn1-c1ccccc1` [Compound 1.8], the IC50 against full length MALT1 and in the experiment with Jurkat IL-2 was 100 to 1000 nM each time.

Consider `CC(C)n1ncc(Nc2ccc([C@H](N(C)C(=O)C3CCS(=O)(=O)CC3)C(F)(F)F)cc2)c1C(F)(F)F` [Compound 1.9], for which the IC50 against full length MALT1 and with Jurkat IL-2 was 100 to 1000 nM in each case.

`CC(=O)N1CC(C(=O)N(C)[C@@H](c2ccc(Nc3cnn(-c4ccccn4)c3C(F)(F)F)cc2)C(F)(F)F)C1` [Compound 1.37]: the IC50 at full length MALT1 and with Jurkat IL-2 was less than 100 nM each time.
